Measured values as given in patent publication EP3882250B1, “TETRAHYDROPYRANYL AMINO-PYRROLOPYRIMIDINONE FOR USE IN TREATING BTK-MEDIATED DISORDERS” (ArQule, Inc., priority 2015, dated 2017).

Key:
Rec-1 cells = assay: Anti-proliferation Assay (MTS), Rec-1 cells; assay type: cell-based; details: Homo sapiens, Rec1, treated for 72 hours, MTS cell survival
Procedure: (§1) Cell survival is determined by a MTS assay. Briefly, cells (i.e., TMD-8 cells or Rec-1 cells) are plated in a 96-well plate, cultured in complete growth medium, and then treated with various drugs and drug combinations. MTS/PMS is added and incubated, followed by assessment of cell viability using the microplate reader. Data is normalized to untreated controls and analyzed with Microsoft Excel.
(§2) Cell survival was determined by the MTS assay. Briefly, cells (i.e., TMD-8 cells or Rec-1 cells) were plated in a 96-well plate at 2,000-10,000 cells per well, cultured for 24 hours in complete growth medium, and then treated with various drugs and drug combinations for 72 hours. MTS/PMS was added and incubated for 4 hour, followed by assessment of cell viability using the microplate reader (absorbance at 490 nm). Data were normalized to untreated controls and analyzed with Microsoft Excel.

TMD-8 cells = assay: Anti-proliferation Assay (MTS), TMD-8 cells; assay type: cell-based; details: Homo sapiens, TMD8, treated for 72 hours, MTS cell survival
Procedure: as §1, §2

## O=C(c1ccc(Oc2ccccc2)cc1Cl)c1c[nH]c2ncnc(N[C@@H]3CC[C@@H](CO)OC3)c12 [Compound (I), (2-chloro-4-phenoxyphenyl)(4-(((3R,6S)-6-(hydroxymethyl)tetrahydro-2H-pyran-3-yl)amino)-7H-pyrrolo[2,3-d]pyrimidin-5-yl)methanone]
Rec-1 cells
  IC50: 180 ± 70 nM
TMD-8 cells
  IC50: 130 ± 60 nM
